# Measured values reported in patent US8834919B2, “Lipid emulsions in the treatment of systemic poisoning” (priority 1998, dated 2014).
# Assays:
# [1] = octanol:water; P = [organic]/[aqueous]; cited from earlier work
# [2] = Bupivacaine lipid:aqueous partition in a mixture of Intralipid and rat plasma; type: physicochemical
# Procedure: The bupivacaine lipid:aqueous partition coefficient was determined for a mixture of Intralipid® and rat plasma. Blood obtained from rats by direct heart puncture under halothane anesthesia was centrifuged and the plasma was separated. Equal volumes of about 30% Intralipid® and plasma (approximately 2 ml each) were combined and vortexed. Approximately 1.0 μCi of titriated bupivacaine (specific activity 0.81 Ci/mole) was added to the mixture to a final bupivacaine concentration of about 93 μg/ml. This mixture was vortexed again then separated into aliquots of about 1 ml. These aliquots were allowed to sit undisturbed for about one hour at about 38° C., then centrifuged at about 10,000 g for about 10 minutes. High speed centrifugation separated each of these mixtures into a clear aqueous phase (about 0.85 ml) under a lipid phase (about 0.15 ml). The latter comprised a clear layer beneath a very thin white cap. The cap was removed then redissolved in saline to a total volume of about 1 ml. Aliquots of this solution and the aqueous plasma phase were then analyzed for tritiated bupivacaine content by liquid scintillation counting. The bupivacaine lipid:aqueous partition coefficient was given by the ratio of bupivacaine in the combined lipid phase (following correction for saline dilution) to the bupivacaine in the aqueous phase. This experiment was performed in triplicate.
# [3] = type: in vivo, rat; conditions: saline pretreatment (group 1); +/- SEM
# Procedure: Immediately following pretreatment, all animals received an infusion of about 0.75% bupivacaine via the internal iliac catheter at a rate of 10 mg/kg/min to an end point of about ten seconds of asystole. Blood was then drawn from the aorta into a heparinized syringe for plasma bupivacaine determinations. The cumulative lethal dose of bupivacaine was calculated in mg/kg for all animals.
# Plasma bupivacaine concentrations were determined by high performance liquid chromatograph (HPLC) after the samples had been extracted with hexane. The method of hexane extraction was validated with bupivacaine spiked samples and provided greater than about 95% recovery of bupivacaine from both normal and lipemic plasma. Thus, plasma bupivacaine concentrations reflected total bupivacaine content in both the aqueous and lipid phases of the specimen. […] The drugs were detected at a wavelength of about 215 nm.
# Bupivacaine dose and plasma concentrations were analyzed by Kruskal-Wallis one way analysis of variance on ranks. […] Plasma bupivacaine concentration data were parametric and differences in mean values were evaluated. […] The difference in survival of the two groups at 15 mg/kg bupivacaine was further evaluated using a z test of proportions. […]
# [4] = Resuscitation from a toxic bupivacaine dose with lipid emulsion (protocol 2); conditions: male, Sprague-Dawley, rat, in vivo, iv, resuscitation with saline infusion after iv bupivacaine bolus; probit analysis
# Procedure: Bupivacaine dose and plasma concentrations were analyzed by Kruskal-Wallis one way analysis of variance on ranks. Post hoc testing of both data sets was performed by Student-Newman-Keul's method for multiple comparisons (SigmaStat, Jandel Scientific/San Rafael, Calif.). Cumulative bupivacaine dose data were nonparametric and median values were compared by differences of ranks. Plasma bupivacaine concentration data were parametric and differences in mean values were evaluated. Probit analysis (CalcuSyn, Biosoft/Cambridge, England) was used to compare bupivacaine LD50 values in the saline and lipid portions. The difference in survival of the two groups at 15 mg/kg bupivacaine was further evaluated using a z test of proportions. Statistical significance in all experiments was taken as p less than or equal to 0.05.
# Experiments were performed to evaluate the ability of a lipid emulsion to resuscitate an animal from a toxic dose of bupivacaine. All animals were anaesthetized, instrumented and stabilized at about 1.75% isoflurane as described in Example 1, and arterial blood pressure and ECG were continuously monitored. […] Survival was scored about 5 minutes after the bupivacaine bolus and required both heart rate greater than about 100 beats per minute and systolic blood pressure greater than about 60 mmHg. […]
# Male Sprague-Dawley rats = assay: Pretreatment with lipid emulsion: dose-response to bupivacaine induced asystole in rats (protocol 1); type: in vivo, rat
# Source text: Studies were undertaken to assess the ability of a lipid emulsion to shift the dose-response to drug-induced asystole (heart stoppage) in rats. Pretreatment with a lipid emulsion increased the dose of bupivacaine (a local anesthetic) required to induce asystole. Racemic bupivacaine hydrochloride was purchased from Sigma (St. Louis, Mo.) while tritiated bupivacaine was purchased from Moravek Biochemicals (Brea, Calif.). Intralipid® was purchased from Baxter Healthcare (Deerfield, Ill.). Male Sprague-Dawley rats weighing between about 250 grams to about 370 grams were used in all experiments.
# Animals were first anesthetized in a bell jar with isoflurane to allow intubation, then mechanically ventilated with about 1.75% isoflurane in about 100% oxygen using a Harvard rodent ventilatory model 680 in conjunction with a tidal volume of 3 ml and a starting rate of about 40 breaths per minute. […] Electrocardiogram (BCG) was monitored via three subcutaneous needle electrodes in each rat. […]
# All animals were allowed to stabilize for about 15 minutes while arterial blood pressure and ECG were monitored. […]
# Immediately following pretreatment, all animals received an infusion of about 0.75% bupivacaine via the internal iliac catheter at a rate of 10 mg/kg/min to an end point of about ten seconds of asystole. […] The cumulative lethal dose of bupivacaine was calculated in mg/kg for all animals. […]
# rats = assay: Pretreatment with lipid emulsion: cocaine toxicity in rats; type: in vivo, rat; conditions: control (saline), cocaine iv 5 mg/kg/min
# Procedure: Because of the significant potential benefit, experiments were performed to test an infusion of a lipid emulsion as a method of treating cocaine toxicity. Anesthetized, ventilated rats were infused with a lipid emulsion (20% Intralipid® at 10 ml/kg for 2 minutes) and then administered an intravenous infusion of cocaine at 5 mg/kg/min to hypotension (blood pressure is less than 40 mmHg) or asystole (no heartbeat for 5 seconds). […] Thus, pretreatment with a lipid emulsion composition shifts the dose-response of cocaine in much the same way as bupivacaine. This is an expected result given the similar properties and effects between cocaine and bupivacaine. These findings indicate that lipid infusion can be used to treat patients experiencing acute cardiovascular compromise in cocaine overdose.
structure (smiles),measurement,setting,value
CCCCN1CCCCC1C(=O)Nc1c(C)cccc1C (racemic) [bupivacaine],logP,[1],3.64
same,percent of total bupivacaine dissolved in the lipid phase,"[2]; equal volumes of about 30% Intralipid and plasma, lipid volume about 15% of total",about 75.3%
same,lipid:aqueous ratio of bupivacaine concentrations,"[2]; equal volumes of about 30% Intralipid and rat plasma, about 38 °C, about 93 μg/ml, +/- standard error, triplicate",11.9+/−1.77
same,mean plasma bupivacaine concentration at the time of asystole,[3],93.3 ± 7.6 µg/mL
same,LD50 at 5 min,[4],12.5 mg/kg
same,Median bupivacaine lethal dose,"Male Sprague-Dawley rats; saline pretreatment (group 1), 0.75% bupivacaine 10 mg/kg/min to asystole, n=6",17.8 mg/kg
same,"lethal bupivacaine dose, lower end of range among all animals",Male Sprague-Dawley rats; single animal receiving saline pretreatment,about 12.7 mg/kg
CC(NC(C)(C)C)C(=O)c1cccc(Cl)c1 (stereo not drawn) [bupropion],logP,[1],3.47
COC(=O)[C@H]1[C@@H](OC(=O)c2ccccc2)C[C@@H]2CC[C@H]1N2C [cocaine],time to asystole,rats,368 ± 27 s
same,mean time to hypotension (40 mmHg),rats; n=8,143 ± 22 s
COc1ccc([C@@H]2Sc3ccccc3N(CCN(C)C)C(=O)[C@@H]2OC(C)=O)cc1 [diltiazem],logP,[1],4.53
Nc1nnc(-c2cccc(Cl)c2Cl)c(N)n1 [lamotrigine],logP,[1],−0.19
Cc1cccc(C)c1NC(=O)C1CCCCN1C (stereo not drawn) [mepivacaine],logP,[1],2.04
CCCN1CCCC[C@H]1C(=O)Nc1c(C)cccc1C [ropivacaine],logP,[1],3.11
CCCCNc1ccc(C(=O)OCCN(C)C)cc1 [tetracaine],logP,[1],3.49
